# According to article PMC7845594, “Novel Immune Modulators Enhance Caenorhabditis elegans Resistance to Multiple Pathogens” (mSphere, 2021):
# What was measured:
# [1] = tested on: glp-4(bn2) worms reared on RNAi, exposed to P. aeruginosa PA14; test: P. aeruginosa liquid killing assay after RNAi knockdown; format: in vivo, Caenorhabditis elegans
# Description: Based on the presence of effectors for well-known innate immune pathways in the transcriptional profiles of C. elegans exposed to LK molecules, we predicted that the compounds were acting through one or more of these pathways, despite the low levels of reporter activation. To test this, RNAi was used to knock down daf-16/FOXO, elt-2/GATA, pmk-1/p38 MAPK, atf-7/ATF7, or skn-1/Nrf2. Sterile, young adult glp-4(bn2) worms were then exposed to P. aeruginosa under liquid killing conditions in the presence of either DMSO or one of the immunostimulatory compounds.
# RNAi conditions measured at different time points are represented by different graphs within the same panel. […] At least six wells, containing 20 worms each, were used per biological replicate to determine survival for each condition, and averages from at least three biological replicates are shown. *, P < 0.05; **, P < 0.01; ***, P < 0.001. P values were calculated using Student’s t test. Error bars represent standard error of the mean.
# (A) Sterile, young adult glp-4(bn2) worms were reared on RNAi targeting irid-28, F38B2.4, T24B8.5, mex-5, Y105C5B.15, comt-4, or empty vector and then exposed to P. aeruginosa in the liquid killing assay. (B) Sterile, young adult glp-4(bn2) worms were reared on RNAi targeting met-2, osm-8, rde-4, oga-1, daf-2, lin-35, glp-1, dpy-10, or dpy-9 and then exposed to P. aeruginosa in the liquid killing assay. These genes were chosen using WormEXP with the criterion that gene expression after mutation would be similar (in terms of upregulation and downregulation) to exposure to LK56. Endpoints were collected at different times (to allow DMSO-treated worms to be approximately 30 to 50% dead). Assays collected at different time points are shown on different graphs. […] For each experiment, three biological replicates were performed, with each replicate comprised of six wells with 20 worms/well. Error bars represent standard error of the mean. *, P < 0.05; **, P < 0.01; ***, P < 0.001. P values were calculated using Student’s t test. Download FIG S4, PDF file, 0.2 MB.
# Due to its strong rescue and unique transcriptional profile, we also created a panel of genes to test for LK56. […] This effect was specific, since mdt-15(RNAi) had no effect on the ability of LK35 or LK38 to rescue in this assay (Fig. 7B). Importantly, MDT-15 was also required for LK56-mediated rescue in E. faecalis and S. aureus pathogenesis assays (Fig. 7C).
# FIG 7 Rescue from pathogens by LK56 requires […]. (A and B) Young adult glp-4(bn2) worms reared on vector or mdt-15(RNAi) were incubated with P. aeruginosa strain PA14 in the liquid killing assay with or without LK56 at 32 µM. (B) Young adult glp-4(bn2) worms reared on vector or mdt-15(RNAi) were exposed to P. aeruginosa PA14 in the liquid killing assay in the presence of LK35, LK38, or DMSO. (C) Young adult glp-4(bn2) worms reared on vector or mdt-15(RNAi) and then exposed to E. faecalis or S. aureus in liquid-based assays in the presence or absence of LK56 at 32 µM. (D) Young adult glp-4(bn2) worms reared on vector, nhr-49(RNAi), or nhr-45(RNAi) were incubated with P. aeruginosa PA14 in the liquid killing assay with or without LK56 at 32 µM. Each replicate included at least six wells, with approximately 20 worms per well. The data shown are mean values from a representative replicate. *, P < 0.05; **, P < 0.01; ***, P < 0.001. P values were calculated using Student’s t test. Error bars represent the standard error of the mean. At least three biological replicates were performed.
# MDT-15 partners with at least two different nuclear hormone receptors, NHR-45 and NHR-49, to regulate gene expression.
# [2] = tested on: C. elegans host defense pathway genes; test: nanoString expression of 115 immune- and stress-responsive genes; details: 100 μM LK molecules, 16 h
# Method in brief: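 Wild-type young adult C. elegans (2,000 per condition) exposed to 100 μM LK molecules or DMSO control in S Basal medium for 16 h. RNA purified and expression of 115 immune- and stress-responsive genes quantified by nanoString; two biological replicates per condition.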
smiles,measurement,setting,value
O=c1cc(CNc2ccc(Br)cc2)nc2sccn12 [LK56],Rescue in liquid killing after nhr-49(RNAi),"[1]; P. aeruginosa PA14, 32 µM",abolished compound rescue
same,Rescue in liquid killing after mdt-15(RNAi),"[1]; P. aeruginosa PA14, LK56 at 32 µM",completely abolish LK56-dependent rescue
same,"B0024.4 expression, induction",[2],2.13 fold
same,"C02B4.2 nhr-17 expression, induction",[2],1.97 fold
same,"C06B3.7 expression, induction",[2],1.14 fold
same,"C07G3.2 irg-1 expression, induction",[2],1.40 fold
same,"C12C8.1 hsp-70 expression, induction",[2],1.04 fold
same,"C15F1.7 sod-1 expression, induction",[2],2.09 fold
same,"C29F7.2 expression, induction",[2],14.61 fold
same,"C31A11.5 oac-6 expression, induction",[2],2.72 fold
same,"C32D5.12 expression, induction",[2],1.17 fold
same,"C32H11.1 expression, induction",[2],8.05 fold
same,"C32H11.3 expression, induction",[2],1.05 fold
same,"C34G6.4 pgp-2 expression, induction",[2],1.72 fold
same,"C37C3.10 expression, induction",[2],3.56 fold
same,"C37H5.8 hsp-6 expression, induction",[2],1.45 fold
same,"C49G7.5 irg-2 expression, induction",[2],2.13 fold
same,"F08F8.5 numr-1 expression, induction",[2],3.14 fold
same,"F08H9.4 expression, induction",[2],1.04 fold
same,"F14F9.3 expression, induction",[2],1.84 fold
same,"F22B5.4 expression, induction",[2],2.10 fold
same,"F22H10.2 expression, induction",[2],1.87 fold
same,"F26A3.4 expression, induction",[2],1.98 fold
same,"F35E8.11 cdr-1 expression, induction",[2],47.99 fold
same,"F35G2.4 phy-2 expression, induction",[2],1.43 fold
same,"F37B12.2 gcs-1 expression, induction",[2],1.20 fold
same,"F43E2.8 hsp-4 expression, induction",[2],1.17 fold
same,"F44E5.5 expression, induction",[2],1.42 fold
same,"F49F1.6 expression, induction",[2],1.76 fold
same,"F49F1.7 expression, induction",[2],4.06 fold
same,"F49H6.13 expression, induction",[2],1.42 fold
same,"F54B8.4 expression, induction",[2],3.28 fold
same,"F55G11.2 expression, induction",[2],2.09 fold
same,"F59A7.1 clec-206 expression, induction",[2],12.55 fold
same,"F59B10.4 expression, induction",[2],1.53 fold
same,"H12D21.1 nspa-1 expression, induction",[2],2.13 fold
same,"H23N18.1 ugt-13 expression, induction",[2],4.36 fold
same,"H23N18.3 ugt-8 expression, induction",[2],20.66 fold
same,"K05B2.4 expression, induction",[2],2.91 fold
same,"K08F4.7 gst-4 expression, induction",[2],1.69 fold
same,"K09A9.1 nipi-3 expression, induction",[2],2.25 fold
same,"K10D11.2 expression, induction",[2],1.72 fold
same,"K10G4.3 expression, induction",[2],1.36 fold
same,"R03D7.6 gst-5 expression, induction",[2],23.60 fold
same,"R08H2.1 dhs-23 expression, induction",[2],182.18 fold
same,"R10E8.3 expression, induction",[2],1.01 fold
same,"T19D12.3 expression, induction",[2],2.00 fold
same,"T19H12.1 ugt-9 expression, induction",[2],6.54 fold
same,"T21E8.1 pgp-6 expression, induction",[2],0.89 fold
same,"T22B7.3 expression, induction",[2],1.38 fold
same,"T24C4.4 expression, induction",[2],1.93 fold
same,"T24E12.5 expression, induction",[2],2.19 fold
same,"T27E4.3 hsp-16.48 expression, induction",[2],1.38 fold
same,"T27E4.8 hsp-16.1 expression, induction",[2],1.30 fold
same,"T27F6.8 expression, induction",[2],2.98 fold
same,"T28C12.4 expression, induction",[2],7.67 fold
same,"W02D9.10 expression, induction",[2],2.27 fold
same,"Y22D7AL.5 hsp-60 expression, induction",[2],1.56 fold
same,"Y38E10A.15 nspe-7 expression, induction",[2],0.87 fold
same,"Y46H3A.2 hsp-16.41 expression, induction",[2],1.11 fold
same,"Y46H3A.3 hsp-16.2 expression, induction",[2],1.21 fold
same,"Y56A3A.33 expression, induction",[2],2.67 fold
same,"Y58A7A.5 expression, induction",[2],1.53 fold
same,"ZC376.7 atfs-1 expression, induction",[2],1.86 fold
same,"ZC443.6 ugt-16 expression, induction",[2],27.68 fold
same,"ZK697.6 gst-21 expression, induction",[2],8.40 fold
